# How the values were obtained:
# [1] = tested on: rat; details: Sub-acute dermal toxicity, sprague dawley, Topical, dose end: 21 day, group: systemic, systemic / in life observation / clinical signs / desquamation + systemic / in life observation / clinical signs / erythema + systemic / …
# [2] = tested on: rat; details: Multigenerational reproductive toxicity study, sprague dawley, Oral, Feed, dose end: 2 generation
# [3] = tested on: rat; details: Prenatal developmental toxicity study, wistar, Oral, Gavage/Intubation, dose end: 8 GD, group: maternal
# [4] = tested on: dog; details: Subchronic oral toxicity in nonrodent, beagle, Feed, dose end: 90 day, group: systemic, systemic / in life observation / clinical signs / pulse/pressure + systemic / organ weight / liver / nos
# [5] = tested on: mouse; details: Carcinogenicity, cd1, Oral, Feed, dose end: 105 week, group: systemic
# [6] = tested on: rat; details: Combined chronic toxicity/carcinogenicity, sprague dawley, Oral, Feed, dose end: 30 month, group: systemic
# [7] = tested on: dog; details: Chronic toxicity; beagle; Oral; Feed; dose end: 52 week; group: systemic; systemic / clinical chemistry / alkaline phosphatase (alp/alk) / alkaline phosphatase (alp/alk) + systemic / clinical chemistry / …
# [8] = tested on: dog; details: Subchronic oral toxicity in nonrodent, beagle, Capsule, dose end: 90 day, group: systemic, systemic / clinical chemistry / alanine aminotransferase (alt/sgpt) / alanine aminotransferase (alt/sgpt) + systemic / clinical chemistry / …
# [9] = tested on: rat; details: Subchronic oral toxicity in rodents, sprague dawley, Gavage/Intubation, dose end: 90 day, group: systemic
# [10] = tested on: rat; details: Multigenerational reproductive toxicity study, sprague dawley, Oral, Gavage/Intubation, dose end: 1 generation
# [11] = tested on: mouse; details: Carcinogenicity, cd1, Oral, Feed, dose end: 102 week, group: systemic
# [12] = tested on: rat; details: Subchronic oral toxicity in rodents, sprague dawley, Feed, dose end: 13 week
# [13] = tested on: rat; details: Combined chronic toxicity/carcinogenicity, other, Oral, Feed, dose end: 104 week
# [14] = tested on: dog; details: Chronic toxicity, beagle, Oral, Capsule, dose end: 12 month
# [15] = tested on: dog; details: Subchronic oral toxicity in nonrodent, beagle, Capsule, dose end: 90 day
# [16] = tested on: mouse; details: Subchronic oral toxicity in rodents, b6c3f1, Water, dose end: 13 week
# [17] = tested on: mouse; details: Carcinogenicity, b6c3f1, Oral, Water, dose end: 2 year, group: systemic
# [18] = tested on: rat; details: Subchronic oral toxicity in rodents, fischer, Water, dose end: 13 week, group: systemic
# [19] = tested on: dog; details: Subchronic oral toxicity in nonrodent, beagle, Feed, dose end: 13 week, group: systemic
# [20] = tested on: dog; details: Chronic toxicity; beagle; Oral; Feed; dose end: 52 week; group: systemic; systemic / clinical chemistry / alkaline phosphatase (alp/alk) / alkaline phosphatase (alp/alk) + systemic / organ weight / liver / absolute…
# [21] = tested on: mouse; details: Carcinogenicity; cd1; Oral; Feed; dose end: 18 month; group: systemic; systemic / pathology microscopic / lung / adenoma
# [22] = tested on: rat; details: Combined chronic toxicity/carcinogenicity; sprague dawley; Oral; [Not Specified]; dose end: 24 month; group: systemic; systemic / hematology / erythrocyte (rbc) count differential / erythrocyte (rbc)
# [23] = group: offspring, developmental / developmental landmark / vaginal opening / vaginal opening + systemic / in life observation / body weight / offspring (pup) …
# [24] = group: parental, systemic / in life observation / body weight / body weight + systemic / in life observation / body weight / body weight gain
# [25] = reproductive / reproductive performance / postimplantation loss / postimplantation loss + systemic / in life observation / body weight / …
# [26] = systemic / in life observation / food consumption / food consumption
# [27] = systemic / in life observation / body weight / body weight + systemic / in life observation / body weight / body weight gain + systemic / …
# [28] = systemic / clinical chemistry / thyroxine (t4) / thyroxine (t4), total + systemic / organ weight / liver / absolute + systemic / organ …
# [29] = systemic / in life observation / body weight / body weight gain
# [30] = systemic / in life observation / body weight / body weight gain + systemic / clinical chemistry / cholesterol / cholesterol + systemic / …
# [31] = group: offspring, systemic / organ weight / kidney / absolute + systemic / organ weight / liver / absolute
# [32] = group: offspring, systemic / organ weight / kidney / absolute + systemic / organ weight / liver / absolute + systemic / in life observation / body weight / …
# [33] = group: parental, systemic / organ weight / kidney / absolute + systemic / organ weight / liver / absolute
# [34] = group: parental, systemic / organ weight / kidney / absolute + systemic / organ weight / liver / absolute + systemic / in life observation / body weight / …
# [35] = group: reproductive, reproductive / reproductive performance / reproductive performance other / NOS + reproductive / reproductive performance / fertility / …
# [36] = systemic / pathology microscopic / adrenal gland / pigmentation
# [37] = systemic / pathology microscopic / adrenal gland / pigmentation + systemic / in life observation / body weight / body weight + systemic / in…
# [38] = group: cholinesterase, cholinesterase / cholinesterase / cholinesterase / erythrocyte cholinesterase (che)
# [39] = group: systemic, systemic / pathology microscopic / adrenal gland / vacuolization cytoplasmic
# [40] = group: systemic, systemic / hematology / erythrocyte (rbc) count differential / erythrocyte (rbc) + systemic / hematology / hematocrit (hct) / hematocrit (…
# [41] = group: systemic, systemic / urinalysis / volume / volume
# [42] = group: cholinesterase, cholinesterase / cholinesterase / cholinesterase / plasma cholinesterase (che)
# [43] = group: systemic, systemic / clinical chemistry / alanine aminotransferase (alt/sgpt) / alanine aminotransferase (alt/sgpt)
# [44] = group: systemic, systemic / clinical chemistry / alanine aminotransferase (alt/sgpt) / alanine aminotransferase (alt/sgpt) + systemic / hematology / …
# [45] = group: cholinesterase, cholinesterase / cholinesterase / cholinesterase / plasma cholinesterase (che) + cholinesterase / cholinesterase / cholinesterase / brain …
# [46] = group: systemic, systemic / pathology microscopic / adrenal gland / cytoplasmic alteration + systemic / pathology microscopic / adrenal gland / hypertrophy
# [47] = group: maternal, reproductive / reproductive performance / estrous cycle / abnormal
# [48] = group: systemic, systemic / in life observation / body weight / body weight + systemic / in life observation / body weight / body weight gain + systemic / in…
# [49] = systemic / in life observation / body weight / body weight + systemic / organ weight / lung / absolute + systemic / pathology microscopic / …
# [50] = systemic / pathology microscopic / liver / angiectasis + systemic / pathology microscopic / liver / eosinophilic focus + systemic / …
# [51] = systemic / hematology / [other] / [other] + systemic / hematology / jolly bodies / jolly bodies + systemic / hematology / leukocyte (wbc) …
# [52] = systemic / hematology / leukocyte (wbc) count differential / leukocyte (wbc) + systemic / hematology / lymphocyte / lymphocyte
# [53] = systemic / clinical chemistry / albumin / albumin + systemic / clinical chemistry / albumin-globulin ratio / albumin-globulin ratio + …
compound,measurement,setting,value
"ClCCCCCCCl [1,6-Dichlorohexane]",LEL,[1],100 mg/kg/day
same,LOAEL,[1],100 mg/kg/day
same,NEL,[1],< 100 mg/kg/day
same,NOAEL,[1],< 100 mg/kg/day
"CC(C)(C)CC(C)(C)c1ccc(O)cc1 [4-(1,1,3,3-Tetramethylbutyl)phenol]",LEL,[2]; [23],100 mg/kg/day
same,LOAEL,[2]; [23],> 100 mg/kg/day
same,NEL,[2]; [23],10 mg/kg/day
same,NOAEL,[2]; [23],≥ 100 mg/kg/day
same,LEL,[2]; [24],100 mg/kg/day
same,LOAEL,[2]; [24],> 100 mg/kg/day
same,NEL,[2]; [24],10 mg/kg/day
same,NOAEL,[2]; [24],≥ 100 mg/kg/day
same,LOAEL,[3]; [25],> 125 mg/kg/day
same,NOAEL,[3]; [25],≥ 125 mg/kg/day
same,LEL,[3]; [26],15.6 mg/kg/day
same,NEL,[3]; [26],< 15.6 mg/kg/day
Clc1ccccc1-c1nnc(-c2ccccc2Cl)nn1 [Clofentezine],LEL,[4],80 mg/kg/day
same,LOAEL,[4],80 mg/kg/day
same,NEL,[4],< 80 mg/kg/day
same,NOAEL,[4],< 80 mg/kg/day
same,LOAEL,[5]; [27],> 544 mg/kg/day
same,NEL,[5]; [27],5 mg/kg/day
same,NOAEL,[5]; [27],≥ 544 mg/kg/day
same,LEL,[5]; systemic / pathology gross / liver / mass,50.7 mg/kg/day
same,LEL,[6]; [28],17.3 mg/kg/day
same,LOAEL,[6]; [28],17.3 mg/kg/day
same,NOAEL,[6]; [28],1.72 mg/kg/day
same,NEL,[6]; systemic / pathology microscopic / liver / hypertrophy + systemic / pathology microscopic / liver / vacuolization,1.72 mg/kg/day
same,LEL,[7],25 mg/kg/day
same,LOAEL,[7],25 mg/kg/day
same,NEL,[7],1.25 mg/kg/day
same,NOAEL,[7],1.25 mg/kg/day
CCOc1ccc2c(c1)C(C)=CC(C)(C)N2 [Ethoxyquin],LEL,[8],4 mg/kg/day
same,LOAEL,[8],4 mg/kg/day
same,NEL,[8],2 mg/kg/day
same,NOAEL,[8],2 mg/kg/day
same,LEL,[9]; [29],40 mg/kg/day
same,LOAEL,[9]; [29],40 mg/kg/day
same,NEL,[9]; [30],20 mg/kg/day
same,NOAEL,[9]; [30],20 mg/kg/day
same,LEL,[10]; [31],75 mg/kg/day
same,NEL,[10]; [31],< 75 mg/kg/day
same,LOAEL,[10]; [32],> 300 mg/kg/day
same,NOAEL,[10]; [32],≥ 300 mg/kg/day
same,LEL,[10]; [33],75 mg/kg/day
same,NEL,[10]; [33],< 75 mg/kg/day
same,LOAEL,[10]; [34],> 300 mg/kg/day
same,NOAEL,[10]; [34],≥ 300 mg/kg/day
same,LEL,[10]; [35],300 mg/kg/day
same,LOAEL,[10]; [35],> 300 mg/kg/day
same,NEL,[10]; [35],150 mg/kg/day
same,NOAEL,[10]; [35],≥ 300 mg/kg/day
CCOP(=O)(SC(C)CC)N1CCSC1=O (stereo not given) [Fosthiazate],LEL,[11]; [36],10.4 mg/kg/day
same,LOAEL,[11]; [36],10.4 mg/kg/day
same,NEL,[11]; [37],3.2 mg/kg/day
same,NOAEL,[11]; [37],3.2 mg/kg/day
same,LEL,[12]; [38],0.09 mg/kg/day
same,LOAEL,[12]; [38],0.09 mg/kg/day
same,NEL,[12]; [38],< 0.09 mg/kg/day
same,NOAEL,[12]; [38],< 0.09 mg/kg/day
same,LEL,[12]; [39],0.08 mg/kg/day
same,LOAEL,[12]; [39],0.08 mg/kg/day
same,NEL,[12]; [39],< 0.08 mg/kg/day
same,NOAEL,[12]; [39],< 0.08 mg/kg/day
same,LEL,[13]; [38],0.051 mg/kg/day
same,LOAEL,[13]; [38],0.38 mg/kg/day
same,NEL,[13]; [38],< 0.051 mg/kg/day
same,NOAEL,"[13]; group: cholinesterase, cholinesterase / cholinesterase / cholinesterase / erythrocyte cholinesterase (che) + cholinesterase / cholinesterase / cholinesterase / …",0.039 mg/kg/day
same,LOAEL,[13]; [40],2.45 mg/kg/day
same,NOAEL,[13]; [40],0.5 mg/kg/day
same,LEL,[13]; [41],0.039 mg/kg/day
same,NEL,[13]; [41],< 0.039 mg/kg/day
same,LEL,[14]; [42],0.5 mg/kg/day
same,LOAEL,[14]; [42],0.5 mg/kg/day
same,NEL,[14]; [42],0.1 mg/kg/day
same,NOAEL,[14]; [42],0.1 mg/kg/day
same,LEL,[14]; [43],0.5 mg/kg/day
same,LOAEL,[14]; [43],0.5 mg/kg/day
same,NEL,[14]; [44],0.1 mg/kg/day
same,NOAEL,[14]; [44],0.1 mg/kg/day
same,LEL,[15]; [42],0.11 mg/kg/day
same,LOAEL,[15]; [42],0.11 mg/kg/day
same,NEL,[15]; [45],0.054 mg/kg/day
same,NOAEL,[15]; [45],0.054 mg/kg/day
same,LEL,[15]; [46],0.11 mg/kg/day
same,LOAEL,[15]; [46],0.11 mg/kg/day
same,NEL,[15]; [46],0.054 mg/kg/day
same,NOAEL,[15]; [46],0.054 mg/kg/day
CCOC(N)=O [Urethane],LEL,[16]; [47],147 mg/kg/day
same,LOAEL,[16]; [47],> 1330 mg/kg/day
same,NEL,[16]; [47],44 mg/kg/day
same,NOAEL,[16]; [47],≥ 1330 mg/kg/day
same,LOAEL,[16]; [48],> 1330 mg/kg/day
same,NEL,[16]; [48],44 mg/kg/day
same,NOAEL,[16]; [48],≥ 1330 mg/kg/day
same,LEL,"[16]; group: systemic, systemic / in life observation / body weight / body weight + systemic / in life observation / body weight / body weight gain + systemic / …",147 mg/kg/day
same,LOAEL,[17]; [49],0.325 mg/kg/day
same,NOAEL,[17]; [49],0.105 mg/kg/day
same,LEL,[17]; [50],0.035 mg/kg/day
same,NEL,[17]; [50],< 0.035 mg/kg/day
same,LOAEL,[18]; [51],> 525 mg/kg/day
same,NOAEL,[18]; [51],≥ 525 mg/kg/day
same,LEL,[18]; [52],11 mg/kg/day
same,NEL,[18]; [52],< 11 mg/kg/day
CCC(C)(NC(=O)c1cc(Cl)c(C)c(Cl)c1)C(=O)CCl (stereo not given) [Zoxamide],LOAEL,[19]; [53],1050 mg/kg/day
same,NEL,[19]; [53],61.8 mg/kg/day
same,NOAEL,[19]; [53],322 mg/kg/day
same,LEL,[19]; systemic / organ weight / liver / absolute + systemic / organ weight / liver / relative to body weight,322 mg/kg/day
same,LEL,[20],255 mg/kg/day
same,LOAEL,[20],255 mg/kg/day
same,NEL,[20],50 mg/kg/day
same,NOAEL,[20],50 mg/kg/day
same,LEL,[21],1290 mg/kg/day
same,LOAEL,[21],> 1290 mg/kg/day
same,NEL,[21],326 mg/kg/day
same,NOAEL,[21],≥ 1290 mg/kg/day
same,LEL,[22],51 mg/kg/day
same,LOAEL,[22],> 1060 mg/kg/day
same,NEL,[22],< 51 mg/kg/day
same,NOAEL,[22],≥ 1060 mg/kg/day
